Measurements from ChEMBL document CHEMBL5338817, “Discovery of Exceptionally Potent, Selective, and Efficacious PROTAC Degraders of CBP and p300 Proteins” (J Med Chem, 2023).

Key:
[1] = target: T1, Histone acetyltransferase p300 (Homo sapiens, UniProt Q09472); assay: Induction of p300 degradation in human RS4-11 cells assessed as maximal degradation incubated for 4 hrs by Western blot assay relative to control; format: cell-based
CREB-binding protein [2] = target: T2, CREB-binding protein (Homo sapiens, UniProt Q92793); assay: Induction of CBP degradation in human RS4-11 cells incubated for 4 hrs by Western blot assay; format: cell-based
Target sequence in this assay (Q92793 whole entry): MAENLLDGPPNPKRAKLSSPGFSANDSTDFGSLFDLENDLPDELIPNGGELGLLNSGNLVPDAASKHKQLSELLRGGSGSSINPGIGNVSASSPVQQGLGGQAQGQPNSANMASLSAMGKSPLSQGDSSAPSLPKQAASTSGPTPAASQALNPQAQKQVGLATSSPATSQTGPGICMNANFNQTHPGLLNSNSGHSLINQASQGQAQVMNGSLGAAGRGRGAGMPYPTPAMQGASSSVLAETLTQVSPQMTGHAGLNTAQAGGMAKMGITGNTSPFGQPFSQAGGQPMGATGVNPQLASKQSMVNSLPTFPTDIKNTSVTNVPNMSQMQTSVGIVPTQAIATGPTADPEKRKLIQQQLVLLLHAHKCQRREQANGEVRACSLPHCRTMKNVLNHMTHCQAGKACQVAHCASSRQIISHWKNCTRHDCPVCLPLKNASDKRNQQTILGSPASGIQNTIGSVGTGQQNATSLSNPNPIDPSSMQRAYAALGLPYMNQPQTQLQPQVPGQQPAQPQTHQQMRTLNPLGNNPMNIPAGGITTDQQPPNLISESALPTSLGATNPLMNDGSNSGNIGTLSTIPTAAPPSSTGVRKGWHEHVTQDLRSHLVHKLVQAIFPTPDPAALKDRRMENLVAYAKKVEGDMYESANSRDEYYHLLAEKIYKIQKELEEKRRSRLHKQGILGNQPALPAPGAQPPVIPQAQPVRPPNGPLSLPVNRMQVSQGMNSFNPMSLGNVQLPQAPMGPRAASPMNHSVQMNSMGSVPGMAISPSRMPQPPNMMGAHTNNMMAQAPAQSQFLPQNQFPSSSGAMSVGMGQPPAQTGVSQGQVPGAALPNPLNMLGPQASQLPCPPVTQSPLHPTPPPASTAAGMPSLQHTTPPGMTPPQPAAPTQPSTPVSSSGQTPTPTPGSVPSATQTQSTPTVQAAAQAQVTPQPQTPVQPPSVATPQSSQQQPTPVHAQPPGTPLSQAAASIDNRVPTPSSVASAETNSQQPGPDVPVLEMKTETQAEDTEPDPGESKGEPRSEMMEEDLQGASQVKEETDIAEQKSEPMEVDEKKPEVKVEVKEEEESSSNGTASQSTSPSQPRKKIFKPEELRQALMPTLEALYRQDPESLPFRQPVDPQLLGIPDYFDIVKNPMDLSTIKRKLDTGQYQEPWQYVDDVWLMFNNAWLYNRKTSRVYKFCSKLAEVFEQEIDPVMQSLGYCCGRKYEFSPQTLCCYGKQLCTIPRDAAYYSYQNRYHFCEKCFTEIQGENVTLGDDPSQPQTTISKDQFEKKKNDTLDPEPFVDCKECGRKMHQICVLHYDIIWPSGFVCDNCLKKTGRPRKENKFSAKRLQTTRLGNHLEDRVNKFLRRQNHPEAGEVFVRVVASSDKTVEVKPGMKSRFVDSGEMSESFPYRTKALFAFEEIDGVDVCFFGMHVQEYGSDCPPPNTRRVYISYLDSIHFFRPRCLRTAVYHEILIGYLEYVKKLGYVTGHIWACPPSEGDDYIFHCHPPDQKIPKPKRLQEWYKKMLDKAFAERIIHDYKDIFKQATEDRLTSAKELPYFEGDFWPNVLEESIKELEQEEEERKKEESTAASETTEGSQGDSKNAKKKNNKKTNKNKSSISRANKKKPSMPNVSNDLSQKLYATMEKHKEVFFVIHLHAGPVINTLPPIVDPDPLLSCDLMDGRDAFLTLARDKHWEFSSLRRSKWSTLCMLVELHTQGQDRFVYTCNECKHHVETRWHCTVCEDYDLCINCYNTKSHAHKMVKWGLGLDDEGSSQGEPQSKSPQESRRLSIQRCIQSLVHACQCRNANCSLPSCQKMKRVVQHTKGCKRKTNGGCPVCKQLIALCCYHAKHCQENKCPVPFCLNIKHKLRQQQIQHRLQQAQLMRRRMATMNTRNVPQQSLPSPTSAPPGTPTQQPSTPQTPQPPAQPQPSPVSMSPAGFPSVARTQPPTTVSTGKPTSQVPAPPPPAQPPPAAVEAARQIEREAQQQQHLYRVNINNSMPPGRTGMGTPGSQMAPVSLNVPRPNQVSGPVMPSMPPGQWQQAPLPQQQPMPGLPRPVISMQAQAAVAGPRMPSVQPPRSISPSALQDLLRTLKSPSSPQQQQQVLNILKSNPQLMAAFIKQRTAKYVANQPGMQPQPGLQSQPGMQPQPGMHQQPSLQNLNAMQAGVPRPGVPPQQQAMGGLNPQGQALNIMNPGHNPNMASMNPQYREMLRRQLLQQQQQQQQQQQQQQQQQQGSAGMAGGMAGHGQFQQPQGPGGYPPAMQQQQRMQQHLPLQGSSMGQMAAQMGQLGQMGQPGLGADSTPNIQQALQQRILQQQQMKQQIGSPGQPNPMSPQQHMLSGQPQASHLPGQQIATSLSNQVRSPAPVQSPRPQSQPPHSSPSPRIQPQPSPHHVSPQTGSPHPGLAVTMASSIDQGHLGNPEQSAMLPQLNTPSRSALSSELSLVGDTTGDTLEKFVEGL

[3] = target: T1, Histone acetyltransferase p300; assay: Induction of p300 degradation in human RS4-11 cells incubated for 4 hrs by Western blot assay; format: cell-based; conditions: for DC50: rs4-11
CREB-binding protein [4] = target: T2, CREB-binding protein; assay: Induction of CBP degradation in human RS4-11 cells assessed as maximal degradation incubated for 4 hrs by Western blot assay; format: cell-based
RS4-11 [5] = assay: Cytotoxicity against human RS4-11 cells assessed as maximum inhibition of cell growth incubated for 4 days by cellTiter-Glo assay relative to control; format: functional; conditions: time 4 day
RS4-11 [6] = assay: Cytotoxicity against human RS4-11 cells assessed as inhibition of cell growth incubated for 4 days by cellTiter-Glo assay; format: functional, cell-based; conditions: RS4-11, 96 h
HL-60 = assay: Cytotoxicity against human HL-60 cells assessed as maximum inhibition of cell growth incubated for 4 days by cellTiter-Glo assay relative to control; format: functional; conditions: time 4 day
MV4-11 = assay: Cytotoxicity against human MV4-11 cells assessed as maximum inhibition of cell growth incubated for 4 days by cellTiter-Glo assay relative to control; format: functional; conditions: time 4 day
MOLM-13 = assay: Cytotoxicity against human MOLM-13 cells assessed as maximum inhibition of cell growth incubated for 4 days by cellTiter-Glo assay relative to control; format: functional; conditions: time 4 day

T1 sequence (Q09472 whole entry): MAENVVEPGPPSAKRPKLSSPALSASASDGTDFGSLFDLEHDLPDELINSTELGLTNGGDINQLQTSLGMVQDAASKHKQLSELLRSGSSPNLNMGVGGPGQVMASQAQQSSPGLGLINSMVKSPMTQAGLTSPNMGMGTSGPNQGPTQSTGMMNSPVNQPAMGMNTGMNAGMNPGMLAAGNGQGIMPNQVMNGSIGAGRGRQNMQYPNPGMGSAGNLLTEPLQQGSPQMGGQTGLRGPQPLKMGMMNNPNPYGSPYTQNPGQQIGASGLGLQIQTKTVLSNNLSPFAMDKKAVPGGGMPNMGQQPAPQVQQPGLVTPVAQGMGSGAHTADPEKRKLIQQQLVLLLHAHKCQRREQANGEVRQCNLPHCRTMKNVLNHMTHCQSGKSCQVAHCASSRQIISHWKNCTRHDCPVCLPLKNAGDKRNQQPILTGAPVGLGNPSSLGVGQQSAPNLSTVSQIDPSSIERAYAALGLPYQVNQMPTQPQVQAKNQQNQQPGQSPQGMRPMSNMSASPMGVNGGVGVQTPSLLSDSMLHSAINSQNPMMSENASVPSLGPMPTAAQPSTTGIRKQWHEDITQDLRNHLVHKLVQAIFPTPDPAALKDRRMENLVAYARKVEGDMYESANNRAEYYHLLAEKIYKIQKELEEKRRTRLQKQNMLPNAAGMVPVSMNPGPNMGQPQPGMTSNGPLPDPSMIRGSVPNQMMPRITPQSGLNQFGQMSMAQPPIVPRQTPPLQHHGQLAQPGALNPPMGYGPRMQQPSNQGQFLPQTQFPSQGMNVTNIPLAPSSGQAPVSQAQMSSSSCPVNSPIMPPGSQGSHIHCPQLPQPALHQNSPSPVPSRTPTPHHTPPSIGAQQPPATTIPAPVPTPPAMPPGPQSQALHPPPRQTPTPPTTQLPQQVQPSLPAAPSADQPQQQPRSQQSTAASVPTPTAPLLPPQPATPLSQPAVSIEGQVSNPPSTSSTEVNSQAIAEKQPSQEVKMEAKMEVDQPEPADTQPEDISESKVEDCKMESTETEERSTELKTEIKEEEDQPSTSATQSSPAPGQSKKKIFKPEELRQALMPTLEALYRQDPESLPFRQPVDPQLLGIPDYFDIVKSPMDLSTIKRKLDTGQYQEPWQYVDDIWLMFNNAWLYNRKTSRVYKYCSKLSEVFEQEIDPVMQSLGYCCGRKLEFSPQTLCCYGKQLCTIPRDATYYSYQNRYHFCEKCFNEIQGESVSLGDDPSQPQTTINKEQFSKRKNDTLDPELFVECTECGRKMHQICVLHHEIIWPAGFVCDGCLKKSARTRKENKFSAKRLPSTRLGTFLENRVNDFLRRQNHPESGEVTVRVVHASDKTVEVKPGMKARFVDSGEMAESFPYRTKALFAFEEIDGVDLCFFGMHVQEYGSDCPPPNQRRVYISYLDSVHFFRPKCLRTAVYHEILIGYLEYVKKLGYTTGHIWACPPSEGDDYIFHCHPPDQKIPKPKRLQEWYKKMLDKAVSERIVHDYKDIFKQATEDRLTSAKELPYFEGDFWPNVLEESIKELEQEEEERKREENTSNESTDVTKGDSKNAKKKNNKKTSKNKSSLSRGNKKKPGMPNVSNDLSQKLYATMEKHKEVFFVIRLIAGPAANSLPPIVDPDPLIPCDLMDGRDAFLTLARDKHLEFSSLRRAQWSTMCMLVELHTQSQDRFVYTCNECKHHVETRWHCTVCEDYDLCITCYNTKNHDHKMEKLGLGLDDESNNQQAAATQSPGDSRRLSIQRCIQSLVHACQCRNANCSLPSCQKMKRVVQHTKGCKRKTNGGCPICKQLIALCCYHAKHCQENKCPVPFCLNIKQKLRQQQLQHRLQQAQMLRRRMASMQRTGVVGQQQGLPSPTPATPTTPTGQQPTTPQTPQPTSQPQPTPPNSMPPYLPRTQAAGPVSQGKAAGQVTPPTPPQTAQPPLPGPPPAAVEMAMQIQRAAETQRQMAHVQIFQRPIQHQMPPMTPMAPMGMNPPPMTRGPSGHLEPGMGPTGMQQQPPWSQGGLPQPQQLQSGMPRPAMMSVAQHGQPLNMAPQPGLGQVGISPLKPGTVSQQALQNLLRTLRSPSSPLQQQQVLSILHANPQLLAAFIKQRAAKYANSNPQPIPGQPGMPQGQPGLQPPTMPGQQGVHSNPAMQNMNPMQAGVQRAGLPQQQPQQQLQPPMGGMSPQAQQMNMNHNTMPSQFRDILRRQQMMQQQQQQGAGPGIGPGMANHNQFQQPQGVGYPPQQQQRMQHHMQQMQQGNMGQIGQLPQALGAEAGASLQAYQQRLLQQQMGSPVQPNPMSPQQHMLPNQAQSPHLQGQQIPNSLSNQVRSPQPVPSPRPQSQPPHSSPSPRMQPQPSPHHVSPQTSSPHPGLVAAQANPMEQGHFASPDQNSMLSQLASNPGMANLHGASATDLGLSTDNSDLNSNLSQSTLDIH

| SMILES | Emax [1] [%] | EC50 (CREB-binding protein [2]) [nM] | EC50 [3] [nM] | Emax (CREB-binding protein [4]) [%] | Imax (RS4-11 [5]) [%] | IC50 (RS4-11 [6]) [nM] | DC50 [3] [nM] | Imax (HL-60) [%] | Imax (MV4-11) [%] | Imax (MOLM-13) [%] |
| --- | --- | --- | --- | --- | --- | --- | --- | --- | --- | --- |
| CC(=O)N1CCc2c(c(-c3cccc4cc(-c5ccc(C(=O)NCCCCCNc6cccc7c6C(=O)N(C6CCC(=O)NC6=O)C7=O)nc5)ncc34)nn2C2CCOCC2)C1 (stereo not given) | 95 | 1 | 0.3 | 92 | >95 | 2.2 | – | – | – | – |
| CC(=O)N1CCc2c(c(-c3cccc4cc(-c5ccc(C(=O)NCCCCCCNc6cccc7c6C(=O)N(C6CCC(=O)NC6=O)C7=O)nc5)ncc34)nn2C2CCOCC2)C1 (stereo not given) | 87 | 0.6 | 0.6 | 99 | 80 | 0.3 | – | – | – | – |
| CC(=O)N1CCc2c(c(-c3cccc4cc(-c5ccc(C(=O)NCCCNc6ccc7c(c6)CN(C6CCC(=O)NC6=O)C7=O)nc5)ncc34)nn2C2CCOCC2)C1 (stereo not given) | 99 | < 0.1 | – | 99 | >95 | 0.1 | 0.3 | – | – | – |
| CC(=O)N1CCc2c(c(-c3cccc4cc(-c5ccc(C(=O)NCCCc6cccc7c6CN(C6CCC(=O)NC6=O)C7=O)nc5)ncc34)nn2C2CCOCC2)C1 (stereo not given) | 99 | 3.3 | – | 95 | 95 | 0.5 | 0.3 | – | – | – |
| CC(=O)N1CCc2c(c(-c3cccc4cc(-c5ccc(C(=O)NCCCCNc6cccc7c6C(=O)N(C6CCC(=O)NC6=O)C7=O)nc5)ncc34)nn2C2CCOCC2)C1 (stereo not given) | 77 | 1.3 | 0.8 | 70 | >95 | 0.4 | – | – | – | – |
| CC(=O)N1CCc2c(c(-c3cccc4cc(-c5ccc(C(=O)NCCCCCc6cccc7c6CN(C6CCC(=O)NC6=O)C7=O)nc5)ncc34)nn2C2CCOCC2)C1 (stereo not given) | 99 | 0.2 | – | 99 | >95 | 0.2 | 0.1 | – | – | – |
| CNC(=O)c1ccc(-c2cc3cccc(-c4nn(C5CCOCC5)c5c4CN(C(C)=O)CC5)c3cn2)cn1 | – | – | – | – | 75 | – | – | 99 | 94 | 98 |
| CC(=O)N1CCc2c(c(-c3cccc4cc(-c5ccc(C(=O)NCCCCc6cccc7c6CN(C6CCC(=O)NC6=O)C7=O)nc5)ncc34)nn2C2CCOCC2)C1 (stereo not given) | 99 | 0.2 | – | 80 | >95 | 0.1 | < 0.1 | – | – | – |
| CC(=O)N1CCc2c(c(-c3cccc4cc(-c5ccc(C(=O)N6CC7(CCC(Nc8cccc9c8C(=O)N(C8CCC(=O)NC8=O)C9=O)CC7)C6)nc5)ncc34)nn2C2CCOCC2)C1 (stereo not given) | 62 | 4.8 | 25 | 81 | 75 | 44 | – | – | – | – |
| CC(=O)N1CCc2c(c(-c3cccc4cc(-c5ccc(C(=O)N6CCN(c7cccc8c7C(=O)N(C7CCC(=O)NC7=O)C8=O)CC6)nc5)ncc34)nn2C2CCOCC2)C1 (stereo not given) | 99 | 0.2 | 1.6 | 99 | 86 | 0.6 | – | – | – | – |
| CC(=O)N1CCc2c(c(-c3cccc4cc(-c5ccc(C(=O)NCCNc6cccc7c6CN(C6CCC(=O)NC6=O)C7=O)nc5)ncc34)nn2C2CCOCC2)C1 (stereo not given) | 97 | 0.6 | – | 99 | 85 | 1.3 | 1.8 | – | – | – |
| CC(=O)N1CCc2c(c(-c3cccc4cc(-c5ccc(C(=O)N6CC7(CC(Nc8cccc9c8C(=O)N(C8CCC(=O)NC8=O)C9=O)C7)C6)nc5)ncc34)nn2C2CCOCC2)C1 (stereo not given) | 95 | 0.3 | 1.1 | 99 | 85 | 11 | – | – | – | – |
